Laboratory results taken from patent publication US12037583B2, “Compositions and methods for immunooncology” (Novartis AG, priority 2015, dated 2024).

Test system: CIITA
Assay: NGS editing and frameshift edit of CIITA by dgRNA in HEK293 cells expressing Cas9
Assay type: cell-based, human
Details: HEK293 cells stably expressing Cas9, dgRNA to CIITA; for Avg. % Edit: N = 3; for Avg. % FS: frameshift edit
Experimental: Editing of CIITA with dgRNAs targeted to the CIITA gene were assayed in HEK293 cells engineered to express Cas9, as described above in Example 1.

Substance	Avg. % Edit [%]	Avg. % FS [%]
CR002973 (guide CAUCGCUGUUAAGAAGCUCC; targeting domain within dual guide RNA, chemistry not given here, further chemistry not given here; listed as Homo sapiens)	30.60	23.55
CR002974 (guide AGAAGUGGUAGAGGCACAGG; targeting domain within dual guide RNA, chemistry not given here, further chemistry not given here; listed as Homo sapiens)	8.99	6.92
CR002975 (guide UAGAAGUGGUAGAGGCACAG; targeting domain within dual guide RNA, chemistry not given here, further chemistry not given here; listed as Homo sapiens)	19.31	15.82
CR002977 (guide CAUAGAAGUGGUAGAGGCAC; targeting domain within dual guide RNA, chemistry not given here, further chemistry not given here; listed as Homo sapiens)	19.11	12.99
CR002979 (guide CUACCACUUCUAUGACCAGA; targeting domain within dual guide RNA, chemistry not given here, further chemistry not given here; listed as Homo sapiens)	28.91	23.07
CR002981 (guide CUUCUAUGACCAGAUGGACC; targeting domain within dual guide RNA, chemistry not given here, further chemistry not given here; listed as Homo sapiens)	36.28	29.98
CR002982 (guide UAUGACCAGAUGGACCUGGC; targeting domain within dual guide RNA, chemistry not given here, further chemistry not given here; listed as Homo sapiens)	10.45	9.05
CR002983 (guide CUUCUCCAGCCAGGUCCAUC; targeting domain within dual guide RNA, chemistry not given here, further chemistry not given here; listed as Homo sapiens)	35.90	33.83
CR002985 (guide CAGUUGAUGGUGUCUGUGUC; targeting domain within dual guide RNA, chemistry not given here, further chemistry not given here; listed as Homo sapiens)	32.99	29.52
CR002986 (guide GCAGUUGAUGGUGUCUGUGU; targeting domain within dual guide RNA, chemistry not given here, further chemistry not given here; listed as Homo sapiens)	1.77	1.48
CR002989 (guide CACACAACAGCCUGCUGAAC; targeting domain within dual guide RNA, chemistry not given here, further chemistry not given here; listed as Homo sapiens)	27.38	8.45
CR002996 (guide AGGUGCUUCCUCACCGAUAU; targeting domain within dual guide RNA, chemistry not given here, further chemistry not given here; listed as Homo sapiens)	23.91	17.83
CR002998 (guide GGGAGUCCUGGAAGACAUAC; targeting domain within dual guide RNA, chemistry not given here, further chemistry not given here; listed as Homo sapiens)	4.95	4.84
CR002999 (guide UGUCUUCCAGGACUCCCAGC; targeting domain within dual guide RNA, chemistry not given here, further chemistry not given here; listed as Homo sapiens)	23.50	18.58
CR003000 (guide CUUCCAGGACUCCCAGCUGG; targeting domain within dual guide RNA, chemistry not given here, further chemistry not given here; listed as Homo sapiens)	12.83	10.53
CR003002 (guide GGCCCUCCAGCUGGGAGUCC; targeting domain within dual guide RNA, chemistry not given here, further chemistry not given here; listed as Homo sapiens)	11.85	9.78
CR003003 (guide CUUGCUCAGGCCCUCCAGCU; targeting domain within dual guide RNA, chemistry not given here, further chemistry not given here; listed as Homo sapiens)	35.07	27.91

Substance	Avg. % Edit [%]	Avg. % FS [%]
CR003004 (guide CCUUGCUCAGGCCCUCCAGC; targeting domain within dual guide RNA, chemistry not given here, further chemistry not given here; listed as Homo sapiens)	19.43	15.63
CR003005 (guide CCAGCUGGAGGGCCUGAGCA; targeting domain within dual guide RNA, chemistry not given here, further chemistry not given here; listed as Homo sapiens)	21.11	18.08
CR003006 (guide UACUGAAAAUGUCCUUGCUC; targeting domain within dual guide RNA, chemistry not given here, further chemistry not given here; listed as Homo sapiens)	19.46	14.66
CR003008 (guide CUCUCACCGAUCACUUCAUC; targeting domain within dual guide RNA, chemistry not given here, further chemistry not given here; listed as Homo sapiens)	15.30	10.91
CR003010 (guide AUGGAGAUGCCAGCAGAAGU; targeting domain within dual guide RNA, chemistry not given here, further chemistry not given here; listed as Homo sapiens)	25.45	14.37
CR003012 (guide CUUUUCUGCCCAACUUCUGC; targeting domain within dual guide RNA, chemistry not given here, further chemistry not given here; listed as Homo sapiens)	10.67	7.51
CR003014 (guide GGUCUGCCGGAAGCUCCUCU; targeting domain within dual guide RNA, chemistry not given here, further chemistry not given here; listed as Homo sapiens)	32.51	26.93
CR003015 (guide AGGUCUGCCGGAAGCUCCUC; targeting domain within dual guide RNA, chemistry not given here, further chemistry not given here; listed as Homo sapiens)	27.40	24.05
CR003016 (guide UUCCGGCAGACCUGAAGCAC; targeting domain within dual guide RNA, chemistry not given here, further chemistry not given here; listed as Homo sapiens)	17.86	13.55
CR003017 (guide UUCCAGUGCUUCAGGUCUGC; targeting domain within dual guide RNA, chemistry not given here, further chemistry not given here; listed as Homo sapiens)	21.90	15.22
CR003018 (guide GAGCCCCCCACUGUGGUGAC; targeting domain within dual guide RNA, chemistry not given here, further chemistry not given here; listed as Homo sapiens)	27.72	26.54
CR003019 (guide CUGCCAGUCACCACAGUGGG; targeting domain within dual guide RNA, chemistry not given here, further chemistry not given here; listed as Homo sapiens)	11.80	9.74
CR003020 (guide ACUGCCAGUCACCACAGUGG; targeting domain within dual guide RNA, chemistry not given here, further chemistry not given here; listed as Homo sapiens)	23.67	16.44
CR003022 (guide AGACUGCCAGUCACCACAGU; targeting domain within dual guide RNA, chemistry not given here, further chemistry not given here; listed as Homo sapiens)	23.73	17.96
CR003023 (guide GAGACUGCCAGUCACCACAG; targeting domain within dual guide RNA, chemistry not given here, further chemistry not given here; listed as Homo sapiens)	29.38	16.83
CR003024 (guide GGUGACUGGCAGUCUCCUAG; targeting domain within dual guide RNA, chemistry not given here, further chemistry not given here; listed as Homo sapiens)	20.40	16.33
